Results: BindingDB's records for patent US12240838 (Biogen Ma, 2025)
pIC50: −log10 of the molar value.

Biological target: Tyrosine-protein kinase BTK (Homo sapiens, UniProt Q06187)
Assay: In Vitro BTK Kinase Assay
Experimental: The purpose of the BTK in vitro assay is to determine compound potency against BTK through the measurement of IC50. […] For a typical assay, a 24 μL aliquot of a ATP/peptide master mix (final concentration; ATP 10 μM, polyGAT 100 nM) in kinase buffer (10 mM Tris-HCl pH 7.5, 10 mM MgCl2, 200 μM Na3PO4, 5 mM DTT, 0.01% Triton X-100, and 0.2 mg/ml casein) is added to each well. […] The assay is incubated for 30 minutes before being stopped with […] of a 50 mM EDTA solution. […] The plate is covered and incubated for 45 minutes at room temperature.

Chain of Tyrosine-protein kinase BTK (Q06187 whole entry): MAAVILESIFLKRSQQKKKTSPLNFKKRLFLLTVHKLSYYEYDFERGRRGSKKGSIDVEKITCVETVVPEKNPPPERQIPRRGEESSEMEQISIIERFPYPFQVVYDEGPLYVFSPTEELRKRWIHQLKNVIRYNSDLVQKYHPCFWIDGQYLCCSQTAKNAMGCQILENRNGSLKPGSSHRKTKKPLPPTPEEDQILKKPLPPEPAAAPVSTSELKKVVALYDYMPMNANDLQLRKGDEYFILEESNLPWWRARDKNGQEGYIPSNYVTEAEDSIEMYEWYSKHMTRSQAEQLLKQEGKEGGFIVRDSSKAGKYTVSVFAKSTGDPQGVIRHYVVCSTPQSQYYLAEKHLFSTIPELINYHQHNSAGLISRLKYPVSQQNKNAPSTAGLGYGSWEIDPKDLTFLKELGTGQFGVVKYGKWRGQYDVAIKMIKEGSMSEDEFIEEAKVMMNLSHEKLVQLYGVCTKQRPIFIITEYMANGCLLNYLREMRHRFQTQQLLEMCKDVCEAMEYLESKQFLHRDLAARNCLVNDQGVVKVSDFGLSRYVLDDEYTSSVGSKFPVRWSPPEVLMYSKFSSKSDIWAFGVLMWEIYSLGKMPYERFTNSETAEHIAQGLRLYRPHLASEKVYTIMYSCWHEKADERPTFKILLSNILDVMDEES

SMILES: CC(C)(C)c1nc(C(=O)NCc2cc(F)c(-c3ccnc(NC(=O)C4CC4)c3)cc2C(F)(F)F)no1 [US12240838, Compound 62]
- pIC50: > 9.00
